Test results taken from ChEMBL document CHEMBL1201862, “PubChem BioAssay data set” (2004).
Activity calls are given as the source filed them.

Assays:
[1] = target: Eukaryotic translation initiation factor 4E (Mus musculus, UniProt P63073); experiment: blockers of eIF4G binding by eIF4E – biochemical, TR-FRET, dose response (AID 855); type: functional;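 also: potency for disrupting eIF4E binding to eIF4GI seen as loss of FRET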
[2] = target: Luciferin 4-monooxygenase (Photinus pyralis, UniProt P08659); experiment: inhibition of purified Photinus pyralis luciferase – biochemical, luminescence, dose response (AID 1891)
Luciferin 4-monooxygenase, sequence (P08659 whole entry): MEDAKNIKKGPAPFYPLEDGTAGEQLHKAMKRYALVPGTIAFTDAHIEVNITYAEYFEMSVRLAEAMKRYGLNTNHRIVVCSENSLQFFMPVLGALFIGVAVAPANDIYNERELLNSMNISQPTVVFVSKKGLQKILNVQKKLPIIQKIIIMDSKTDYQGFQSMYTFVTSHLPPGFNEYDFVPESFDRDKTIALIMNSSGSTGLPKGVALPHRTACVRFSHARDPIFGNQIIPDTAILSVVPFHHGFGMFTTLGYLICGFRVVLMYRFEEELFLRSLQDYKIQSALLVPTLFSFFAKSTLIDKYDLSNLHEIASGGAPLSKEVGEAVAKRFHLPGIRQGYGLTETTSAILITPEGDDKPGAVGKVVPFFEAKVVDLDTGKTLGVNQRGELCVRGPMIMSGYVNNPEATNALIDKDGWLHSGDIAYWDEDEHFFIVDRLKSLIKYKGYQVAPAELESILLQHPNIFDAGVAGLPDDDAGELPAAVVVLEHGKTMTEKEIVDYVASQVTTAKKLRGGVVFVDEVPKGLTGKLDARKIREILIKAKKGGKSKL

[3] = Luminescence Cell-Based Dose Confirmation HTS to Identify Inhibitors of Platelet Dense Granule Release. [Related pubchem assays: 1663 (Primary HTS), 1678 (Summary of Project)]; type: functional
[4] = target: FAD-linked sulfhydryl oxidase ALR (Homo sapiens, UniProt P55789); experiment: ALR-catalysed DTT oxidation blockers – biochemical, H2O2 detection, luminescence, cherry-pick, dose response (AID 493248)
FAD-linked sulfhydryl oxidase ALR, sequence (P55789 whole entry): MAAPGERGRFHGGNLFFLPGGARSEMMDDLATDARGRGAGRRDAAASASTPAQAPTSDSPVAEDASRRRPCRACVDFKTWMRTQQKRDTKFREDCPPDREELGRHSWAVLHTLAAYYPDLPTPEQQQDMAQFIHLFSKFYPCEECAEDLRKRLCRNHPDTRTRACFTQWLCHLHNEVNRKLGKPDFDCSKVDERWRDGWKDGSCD

[5] = microbe, parasite or virus in culture; type: functional; conditions: Mycobacterium tuberculosis
[6] = target: T1, Replicative DNA helicase DnaB (Mycobacterium tuberculosis, UniProt P9WMR3); experiment: DnaB intein splicing inhibitors, dose response, biochemical, cell-free fluorescence (AID 449749); type: functional
T1 sequence (P9WMR3 whole entry): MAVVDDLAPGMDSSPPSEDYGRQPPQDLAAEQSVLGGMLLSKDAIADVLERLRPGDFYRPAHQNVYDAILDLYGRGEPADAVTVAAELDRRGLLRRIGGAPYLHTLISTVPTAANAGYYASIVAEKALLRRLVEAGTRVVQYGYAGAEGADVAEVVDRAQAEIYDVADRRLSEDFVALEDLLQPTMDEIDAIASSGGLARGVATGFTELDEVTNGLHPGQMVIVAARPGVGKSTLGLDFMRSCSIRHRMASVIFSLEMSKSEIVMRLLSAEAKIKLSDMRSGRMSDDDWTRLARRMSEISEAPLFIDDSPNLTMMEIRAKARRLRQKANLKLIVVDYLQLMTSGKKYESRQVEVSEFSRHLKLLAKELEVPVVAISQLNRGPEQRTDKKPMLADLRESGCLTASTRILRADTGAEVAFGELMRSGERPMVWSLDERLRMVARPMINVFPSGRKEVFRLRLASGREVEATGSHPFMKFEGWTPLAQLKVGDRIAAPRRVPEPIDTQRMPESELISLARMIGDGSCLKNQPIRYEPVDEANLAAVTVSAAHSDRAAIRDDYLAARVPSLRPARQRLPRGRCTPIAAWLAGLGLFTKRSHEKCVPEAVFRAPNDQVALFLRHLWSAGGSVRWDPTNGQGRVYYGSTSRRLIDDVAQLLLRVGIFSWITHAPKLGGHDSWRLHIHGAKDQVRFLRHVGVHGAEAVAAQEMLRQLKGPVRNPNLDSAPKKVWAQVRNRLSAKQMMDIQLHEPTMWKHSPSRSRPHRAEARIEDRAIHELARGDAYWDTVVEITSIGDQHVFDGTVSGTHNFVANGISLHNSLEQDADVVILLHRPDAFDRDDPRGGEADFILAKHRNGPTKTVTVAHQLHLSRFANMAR

[7] = target: T2, Protein RecA (Mycobacterium tuberculosis, UniProt P9WHJ3); experiment: Fluorescence Cell-Free Homogeneous Dose Retest to Identify Inhibitors of RecA-Intein Splicing Activity. [Related pubchem assays (depositor defined):AID2097, AID2223, AID489010, AID492950]; type: functional
T2 sequence (P9WHJ3 whole entry): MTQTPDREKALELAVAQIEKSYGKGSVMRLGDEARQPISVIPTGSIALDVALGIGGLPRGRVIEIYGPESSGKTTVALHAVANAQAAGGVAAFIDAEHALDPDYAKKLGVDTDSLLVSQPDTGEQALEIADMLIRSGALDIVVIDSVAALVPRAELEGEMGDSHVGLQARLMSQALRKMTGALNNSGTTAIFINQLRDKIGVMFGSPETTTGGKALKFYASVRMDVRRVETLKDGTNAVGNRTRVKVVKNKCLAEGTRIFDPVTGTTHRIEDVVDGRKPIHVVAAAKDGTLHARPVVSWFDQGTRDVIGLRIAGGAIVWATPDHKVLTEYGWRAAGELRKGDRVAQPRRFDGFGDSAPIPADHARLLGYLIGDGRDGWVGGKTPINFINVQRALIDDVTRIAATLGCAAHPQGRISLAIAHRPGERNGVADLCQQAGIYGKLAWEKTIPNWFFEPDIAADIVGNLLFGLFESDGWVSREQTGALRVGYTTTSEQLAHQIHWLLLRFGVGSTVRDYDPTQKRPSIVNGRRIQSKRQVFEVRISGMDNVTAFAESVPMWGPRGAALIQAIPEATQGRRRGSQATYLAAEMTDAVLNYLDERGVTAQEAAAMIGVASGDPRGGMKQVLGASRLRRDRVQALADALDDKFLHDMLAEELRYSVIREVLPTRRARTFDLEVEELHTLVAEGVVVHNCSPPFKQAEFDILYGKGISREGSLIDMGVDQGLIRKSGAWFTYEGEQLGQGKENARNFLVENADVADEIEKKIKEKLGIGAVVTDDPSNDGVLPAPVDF

[8] = target: Large T antigen (Simian virus 40, UniProt P03070); type: functional, Betapolyomavirus macacae;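 also: Confirmatory-stage PubChem screen for compounds that inhibit SV40 T antigen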
Large T antigen, sequence (P03070 whole entry): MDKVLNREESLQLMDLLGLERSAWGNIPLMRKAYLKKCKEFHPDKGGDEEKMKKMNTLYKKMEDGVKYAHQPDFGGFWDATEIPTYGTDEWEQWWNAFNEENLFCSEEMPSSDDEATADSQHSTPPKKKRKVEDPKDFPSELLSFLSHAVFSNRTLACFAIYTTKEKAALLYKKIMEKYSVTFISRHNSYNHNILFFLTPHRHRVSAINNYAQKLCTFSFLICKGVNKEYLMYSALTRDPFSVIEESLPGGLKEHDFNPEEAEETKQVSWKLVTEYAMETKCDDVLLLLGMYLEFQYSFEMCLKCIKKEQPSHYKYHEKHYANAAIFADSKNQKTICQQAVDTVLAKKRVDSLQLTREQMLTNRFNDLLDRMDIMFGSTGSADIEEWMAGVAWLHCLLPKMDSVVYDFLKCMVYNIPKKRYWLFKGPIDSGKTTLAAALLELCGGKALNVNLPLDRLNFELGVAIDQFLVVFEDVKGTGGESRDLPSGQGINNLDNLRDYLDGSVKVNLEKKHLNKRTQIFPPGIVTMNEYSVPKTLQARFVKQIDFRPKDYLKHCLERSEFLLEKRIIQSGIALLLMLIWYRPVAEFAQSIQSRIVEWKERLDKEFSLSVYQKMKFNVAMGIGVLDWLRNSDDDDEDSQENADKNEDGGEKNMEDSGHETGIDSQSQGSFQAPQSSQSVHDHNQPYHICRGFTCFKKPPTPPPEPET

[9] = target: T3, Leucine aminopeptidase (Plasmodium falciparum 3D7, UniProt Q8IL11); experiment: P. falciparum M17LAP inhibitors, primary screen, biochemical, fluorogenic H-Leu-NHMec substrate, 1536-well (AID 1619); type: functional
T3 sequence (Q8IL11 whole entry): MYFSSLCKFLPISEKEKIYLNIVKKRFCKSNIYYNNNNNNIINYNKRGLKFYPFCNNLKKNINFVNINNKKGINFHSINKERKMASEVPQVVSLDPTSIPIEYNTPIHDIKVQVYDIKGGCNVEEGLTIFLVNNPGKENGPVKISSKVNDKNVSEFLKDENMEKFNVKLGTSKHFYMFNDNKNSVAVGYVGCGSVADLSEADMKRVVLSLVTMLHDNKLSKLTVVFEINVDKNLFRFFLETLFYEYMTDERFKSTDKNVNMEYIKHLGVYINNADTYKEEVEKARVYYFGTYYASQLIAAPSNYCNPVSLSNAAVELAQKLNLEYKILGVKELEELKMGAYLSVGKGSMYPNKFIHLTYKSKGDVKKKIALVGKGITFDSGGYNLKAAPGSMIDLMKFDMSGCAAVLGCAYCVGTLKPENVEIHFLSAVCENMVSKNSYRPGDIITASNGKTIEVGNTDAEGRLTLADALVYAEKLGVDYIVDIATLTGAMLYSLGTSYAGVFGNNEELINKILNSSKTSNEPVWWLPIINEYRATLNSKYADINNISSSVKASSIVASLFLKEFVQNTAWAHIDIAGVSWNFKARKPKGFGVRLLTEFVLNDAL

[10] = tested on: Streptococcus sp. 'group A'; experiment: Streptococcus pyogenes SK(-)GAS viability under kanamycin – luminescence, BacTiterGlo, confirmation, counter-screen for streptokinase expression inhibitor project, dose response (AID 1900); type: functional, organism-based
[11] = tested on: Streptococcus; experiment: GAS UMAA2166 growth inhibition – luminescence, BacTiterGlo, counter-screen for streptokinase expression inhibitor project, dose response (AID 1915); type: functional, organism-based;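 also: potency for reduction of bacterial viability or growth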
[12] = THP-1 cell cytotoxicity, dose response, cytotoxicity control for non-replicating M. tuberculosis project (AID 489025); type: functional
[13] = cells; type: functional
[14] = target: Nonstructural protein 1 (Influenza A virus, UniProt Q194T2); type: functional, Influenza A virus (A/California/07/2009(H1N1))
Nonstructural protein 1, sequence (Q194T2 whole entry): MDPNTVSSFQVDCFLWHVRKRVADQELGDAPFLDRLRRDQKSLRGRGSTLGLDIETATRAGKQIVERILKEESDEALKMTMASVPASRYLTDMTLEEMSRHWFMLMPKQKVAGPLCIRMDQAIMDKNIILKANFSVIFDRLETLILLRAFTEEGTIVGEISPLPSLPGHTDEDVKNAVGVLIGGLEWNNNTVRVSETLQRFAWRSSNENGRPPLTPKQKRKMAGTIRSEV

[15] = target: Heat shock protein HSP 90-alpha (Homo sapiens, UniProt P07900); type: functional, organism-based
[16] = target: T4, Heat shock factor protein 1 (Mus musculus, UniProt P38532); experiment: enhancement of HSF1-driven luciferase signal – cell-based, NIH3T3, luminescence, dose retest, confirmation (AID 435004); type: functional;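 also: stress induced by proteasome inhibitor MG132 added 30 min after compound; luciferase reporter driven by HSF1 response element in NIH3T3 cells; actives raise luminescence as potentiators of the MG132 stress response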
T4 sequence (P38532 whole entry): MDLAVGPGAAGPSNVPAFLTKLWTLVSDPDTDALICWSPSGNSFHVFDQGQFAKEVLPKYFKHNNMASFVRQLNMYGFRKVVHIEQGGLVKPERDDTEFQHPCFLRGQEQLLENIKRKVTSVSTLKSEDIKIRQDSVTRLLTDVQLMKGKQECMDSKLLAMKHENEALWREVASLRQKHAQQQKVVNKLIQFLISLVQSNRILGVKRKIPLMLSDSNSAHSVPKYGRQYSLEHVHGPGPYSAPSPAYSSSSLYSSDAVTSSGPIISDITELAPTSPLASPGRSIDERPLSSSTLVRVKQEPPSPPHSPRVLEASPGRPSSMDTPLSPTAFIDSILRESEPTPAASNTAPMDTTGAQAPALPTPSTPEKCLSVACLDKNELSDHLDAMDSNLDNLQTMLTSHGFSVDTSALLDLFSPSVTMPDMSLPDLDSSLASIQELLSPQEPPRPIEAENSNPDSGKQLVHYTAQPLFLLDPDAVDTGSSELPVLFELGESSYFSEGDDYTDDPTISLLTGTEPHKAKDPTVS

[17] = viability of PTEN-deleted HCT116 cells – cell-based, HCT116 PTEN knockout, dose response (AID 1047); type: functional;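 also: HCT116 colon tumor cells with PTEN knocked out; cells exposed to compound for 60 hours before readout; potency for loss of cell viability measured by luminescence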
[18] = viability of HCT116 lacking mutant beta-catenin – cell-based, human colon tumor, dose response (AID 1045); type: functional;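 also: HCT116 colon tumor cells with beta catenin knocked out; cells exposed to compound for 60 hours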

Eukaryotic translation initiation factor 4E, sequence (P63073 whole entry): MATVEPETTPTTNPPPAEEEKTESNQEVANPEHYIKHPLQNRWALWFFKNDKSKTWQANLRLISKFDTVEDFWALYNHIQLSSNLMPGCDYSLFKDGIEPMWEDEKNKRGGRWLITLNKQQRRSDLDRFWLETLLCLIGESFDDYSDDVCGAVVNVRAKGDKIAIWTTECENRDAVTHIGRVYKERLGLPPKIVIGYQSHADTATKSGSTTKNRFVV

## CCCN1CCC(=NNC(=O)c2ccc(Br)o2)CC1
[1]
  IC50: > 64 µM (inactive)

## Cn1nc(C(=O)OCC(=O)Nc2sccc2C(N)=O)c2ccccc2c1=O
[2]
  EC50: > 112 µM (not active)
[3]
  EC50: > 112 µM (not active)

## CCN(CC)CCNS(=O)(=O)c1ccc(C(=O)NN)cc1
[4]
  AC50: 3.39 µM (active)

## O=C(CCl)Nc1sccc1C(=O)c1ccccc1
[5]
  CC50: 18.1 µM (active)
[6]
  AC50: 4.8 µM (active)
[7]
  EC50: 4.78 µM (active)

## Cc1ccsc1/C=N/n1c(S)nnc1-c1cccnc1
[8]
  IC50: 30.3 µM (active)
[1]
  IC50: > 64 µM (inactive)

## O=C(CSc1nc[nH]n1)Nc1ccc(S(=O)(=O)N2CCCC2)cc1
[9]
  IC50: 82.5 µM (active)

## Cc1cc2nc(N/C(N)=N/C(=O)C(C)C)nc(C)c2cc1C
[10]
  EC50: > 150 µM (not active)
[5]
  CC50: > 40 µM (active)
[11]
  EC50: > 150 µM (not active)
[12]
  CC50: 17 µM (active)
[13]
  IC50: 20.3 µM (active)

## COc1cc(C=NO)nc(-c2ccccn2)c1
[14]
  IC50: 2.51 µM (active)
[15]
  AC50: 3.2 µM (active)

## CC1=C(C(=O)OCc2ccccc2)C(c2ccc(Cl)cc2Cl)NC(=O)N1CCCCCC(=O)O (stereo not drawn)
[9]
  IC50: 20.4 µM (active)

## CCCCN(CCCNC(=O)C1CCN(S(=O)(=O)CC)CC1)c1ccccc1
[16]
  EC50: > 260 µM (inactive)
[4]
  AC50: 0.131 µM (active)

## CCOC(=O)c1nc2sc3c(c2c(=O)[nH]1)CCCC3
[2]
  EC50: > 112 µM (not active)

## Fc1ccc(C2CC(c3ccccc3)n3ncnc3N2)cc1 (stereo not drawn)
[2]
  EC50: > 112 µM (not active)
[3]
  EC50: > 112 µM (not active)

## COc1ccc(N2CC(C(=O)NCc3ccccc3)CC2=O)cc1 (stereo not drawn)
[2]
  EC50: > 112 µM (not active)
[3]
  EC50: > 112 µM (not active)

## O=C1CC(N2CCc3ccccc32)C(=O)N1c1ccccc1 (stereo not drawn)
[4]
  AC50: 0.677 µM (active)

## Cc1[nH]c(=O)c(C#N)cc1-c1ccncc1 [MILRINONE]
[2]
  EC50: > 112 µM (not active)
[3]
  EC50: 0.634 µM (active)

## CCc1ccc(C2=NN(c3ccc(S(N)(=O)=O)cc3)C(c3ccc(F)cc3)C2)cc1 (stereo not drawn)
[5]
  CC50: 27.6 µM (active)
[17]
  EC50: 16.6 µM (active)
[18]
  EC50: 17.9 µM (active)

## CC(C)CC(=O)n1sc(NC(=O)c2ccccc2)nc1=O
[9]
  IC50: 43.9 µM (active)

## CCOC(=O)c1nc(O)c2c3c(sc2n1)CCCC3
[3]
  EC50: > 112 µM (not active)

## COc1cc2cc(C(N)=O)c(N)nc2cc1OC
[2]
  EC50: > 112 µM (not active)
[3]
  EC50: 40 µM (active)

## CC(C)COc1ccc(C(=O)Nc2ccc(NC(=O)c3ccco3)c(Cl)c2)cc1
[2]
  EC50: > 112 µM (not active)
[3]
  EC50: > 112 µM (not active)

## COc1ccc(Nc2ccc(S(=O)(=O)N3CCCCCC3)cc2[N+](=O)[O-])cc1
[14]
  IC50: 45.6 µM (active)
